# Reference: patent US20250144056A1, “ANTIMICROBIAL HOST DEFENSE PEPTIDE-INDUCING COMPOSITIONS AND METHODS OF PRODUCTION AND USE THEREOF” (Board of Regents for the Oklahoma Agricultural and …, priority 2022, published 2025)
# “Also recorded” adds a separate entry of the source.
# What was measured:
# Type in all cases: cell-based, chicken
# AvBD10 = experiment: RT-qPCR of AvBD10 in HD11 macrophages; conditions: HD11 cells, 5 μM compound with 2 mM butyrate, 24 h (FIG. 6, Panel D)
# Description: (§1) Culture and stimulation of macrophages. Two different chicken macrophage cell lines, HTC (24) and HD11 (25), were kindly provided by Dr. Narayan C. Rath and Dr. Hyun Lillehoj of USDA-ARS and maintained in RPMI 1640 containing 10% heat-inactivated FBS, 100 U/ml penicillin, and 100 μg/ml streptomycin and subcultured every 3-4 days. After overnight seeding at 1.5×10^6 cells/well in 6-well cell culture plates, cells were treated with different concentrations of each compound for 24 h or with the indicated concentration of each compound for various lengths of time for dose-response and time-course experiments, respectively. […]
# (§2) Total RNA extraction and gene expression analysis. […] Gene expression was performed using reverse transcription-quantitative PCR (RT-qPCR) as previously described (27-29). […] The cDNA was then diluted 10-fold with RNase-free water prior to real-time PCR using QuantiTect SYBR® Green PCR Kit (Qiagen, Valencia, CA) in 10-μl reactions using primers specific for HDP, barrier function, and inflammatory cytokine genes as described (27, 29, 30). […] The fold changes in gene expression in the cells treated with individual compounds or in combinations were calculated relative to the cells treated with an equal volume of RPMI 1640 or DMSO using the ΔΔCt method (31).
# AvBD9 = experiment: RT-qPCR of AvBD9 in HD11 macrophages; conditions: HD11 cells, 5 μM compound with 2 mM butyrate, 24 h (FIG. 6, Panel A)
# Description: as §1, §2
# CLDN1 = experiment: RT-qPCR of CLDN1 (claudin 1) in HTC cells; conditions: 24 h (FIG. 8, Panel F)
# Description: (§3) Culture and stimulation of macrophages. Two different chicken macrophage cell lines, HTC (24) and HD11 (25), were kindly provided by Dr. Narayan C. Rath and Dr. Hyun Lillehoj of USDA-ARS and maintained in RPMI 1640 containing 10% heat-inactivated FBS, 100 U/ml penicillin, and 100 μg/ml streptomycin and subcultured every 3-4 days. After overnight seeding at 1.5×10^6 cells/well in 6-well cell culture plates, cells were treated with different concentrations of each compound for 24 h or with the indicated concentration of each compound for various lengths of time for dose-response and time-course experiments, respectively. To study the synergy between HMTi/DNMTi and HDACi, different concentrations of an HMTi or DNMTi were added to the cells in the presence or absence of an HDACi for 24 h, followed by RNA isolation and HDP gene expression analysis as described below. HTC cells were also stimulated with butyrate, BIX01294, or their combination for 24 h, followed by 3-h stimulation with 10 ng/ml LPS and subsequent expression analysis.
# (§4) Total RNA extraction and gene expression analysis. Total RNA was extracted using RNAzol (Molecular Biology Research Center, Cincinnati, OH) according to the manufacturer's protocol. Gene expression was performed using reverse transcription-quantitative PCR (RT-qPCR) as previously described (27-29). Reverse transcription was performed with 300 ng of total RNA and Maxima® First Strand cDNA Synthesis Kit (ThermoFisher Scientific, Pittsburgh, PA). The cDNA was then diluted 10-fold with RNase-free water prior to real-time PCR using QuantiTect SYBR® Green PCR Kit (Qiagen, Valencia, CA) in 10-μl reactions using primers specific for HDP, barrier function, and inflammatory cytokine genes as described (27, 29, 30). PCR was run in CFX Connect Real-Time PCR System (Bio-Rad, Hercules, CA) using the following program: 95° C. for 10 min, followed by 40 cycles of 94° C. for 15 sec, 55° C. for 20 sec, and 72° C. for 30 sec. The specificity of PCR reactions was confirmed by the melting curve analysis. The glyceraldehyde-3-phosphate dehydrogenase (GAPDH) gene was used as the reference for data normalization. The fold changes in gene expression in the cells treated with individual compounds or in combinations were calculated relative to the cells treated with an equal volume of RPMI 1640 or DMSO using the ΔΔCt method (31).
# AvBD9 mRNA expression = experiment: RT-qPCR of AvBD9 mRNA expression in HTC macrophage cells; conditions: for synergy with butyrate in AvBD9 mRNA expression: indicated concentrations in combination with 2 mM butyrate, 24 h (FIG. 4); for synergy in AvBD9 induction between HMTi and HDACi: with butyrate or mocetinostat, 24 h (FIG. 7, Panel C); for induction of AvBD9 gene expression / increase in AvBD9 expression, combination with mocetinostat: 24 h (FIG. 7, Panel D); for increase in AvBD9 expression, combination with mocetinostat: 5 μM compound in combination with 2.5 μM mocetinostat
# Description: as §3, §4
# AvBD4 = experiment: RT-qPCR of AvBD4 in HD11 macrophages; conditions: HD11 cells, 5 μM compound with 2 mM butyrate, 24 h (FIG. 6, Panel C)
# Description: as §1, §2
# AvBD1 = experiment: RT-qPCR of AvBD1 in HD11 macrophages; conditions: HD11 cells, 5 μM compound with 2 mM butyrate, 24 h (FIG. 6, Panel B)
# Description: as §1, §2
# AvBD9 gene promoter = experiment: HTC/AvBD9-luc luciferase reporter assay; conditions: for activation of the AvBD9 gene promoter (relative luciferase activity): compound alone, different concentrations, 24 h (FIG. 2, Panel A); for synergy in luciferase activity with butyrate: different concentrations in combination with 2 mM butyrate, 24 h (FIG. 3)
# Description: Culture and stimulation of a stable HTC/AvBD9-luc luciferase reporter cell line. A stable HTC/AvBD9-luc cell line was generated by cloning a 2.0-Kb AvBD9 gene promoter fragment into a lentiviral luciferase reporter vector, pGreenFire1-mCMV-Puro (System Biosciences, Palo Alto, CA) and then transfected into HTC cells as previously described (22). The stable cell line was maintained in RPMI 1640 containing 10% heat-inactivated FBS, 100 U/ml penicillin, 100 μg/mL streptomycin, and 0.5 μg/mL puromycin and subcultured every 3-4 days. To measure transcriptional activation of the AvBD9 gene promoter in response to different epigenetic compounds, cells were seeded at 4×10^4 cells/well in white 96-well tissue culture plates and stimulated in duplicate with different compounds individually or in combination for 24 h. An equal amount of a solvent was applied as a negative control. Luciferase activity was measured using STEADY-GLO® Luciferase Assay System (Promega, Madison, WI) on an L-Max II luminescence microplate reader (Molecular Devices, Sunnyvale, CA). Cell viabilities were assessed by adding alamarBlue Reagent (ThermoFisher, Waltham, MA) to cell culture 4 h before luciferase assay. Relative luciferase activity was determined for each well after normalization to the cell viability as previously described (22).
# IL-8 = experiment: RT-qPCR of IL-8 in HTC cells with or without LPS
# Description: as §3, §4
# IL-1β = experiment: RT-qPCR of IL-1β in HTC cells with or without LPS
# Description: as §3, §4
smiles,measurement,setting,value
CCCc1cc(C)[nH]c(=O)c1CNC(=O)c1cc(-c2ccc(N3CCN(C(C)C)CC3)nc2)cc2c1cnn2C(C)C [UNC1999],"AvBD10 induction, combination with butyrate",AvBD10,"synergistically induced, albeit at lower magnitudes"
same,synergy in AvBD9 induction with butyrate,AvBD9,drastic synergy
same,"CLDN1 induction, combination with mocetinostat",CLDN1; 5 μM UNC1999 + 2.5 μM mocetinostat,synergistically induced
same,"CLDN1 induction, combination with butyrate",CLDN1; 5 μM UNC1999 + 2 mM butyrate,synergistically induced
same,additional increase in AvBD9 expression of the butyrate combination over compound alone,AvBD9 mRNA expression; 20 μM compound + 2 mM butyrate versus 20 μM compound alone,14 fold
same,increase in AvBD9 mRNA expression,"AvBD9 mRNA expression; 20 μM compound alone, 24 h (FIG. 2, Panel B), peak",259 fold
same,induction of AvBD9 expression,"AvBD9 mRNA expression; 20 μM compound alone, 24 h (FIG. 4, Panels A, B)",324 fold
same,"increase in AvBD9 expression, combination with butyrate","AvBD9 mRNA expression; 20 μM compound in combination with 2 mM butyrate, 24 h (FIG. 4, Panels A, B)","4,470 fold"
same,synergy with butyrate in AvBD9 mRNA expression,AvBD9 mRNA expression,concentration-dependent increase
same,synergy in AvBD9 induction between HMTi and HDACi,AvBD9 mRNA expression,marked synergy
same,"AvBD4 induction, combination with butyrate",AvBD4,"synergistically induced, albeit at lower magnitudes"
same,"AvBD1 induction, combination with butyrate",AvBD1,"synergistically induced, albeit at lower magnitudes"
same,activation of the AvBD9 gene promoter (relative luciferase activity),AvBD9 gene promoter,concentration-dependent activation
same,synergy in luciferase activity with butyrate,AvBD9 gene promoter,marked dose-dependent increase in the synergy
"CCCC(=O)[O-].[Na+] [butyrate, Sodium butyrate]",induction of AvBD9 expression,"AvBD9 mRNA expression; 2 mM butyrate alone, 24 h (FIG. 4, Panel A)",27 fold
same,effect on LPS-induced IL-8 expression,"IL-8; compound alone 24 h, then 10 ng/ml LPS 3 h (FIG. 8, Panel E)",potentiated
same,activity in inducing gene expression of IL-8,"IL-8; compound alone (2 mM butyrate or 5 μM BIX01294), without LPS (FIG. 8, Panel E)",no or weak activity
same,effect on LPS-induced IL-1β expression,"IL-1β; compound alone 24 h, then 10 ng/ml LPS 3 h (FIG. 8, Panel D)",suppressed
same,activity in inducing gene expression of IL-1β,"IL-1β; compound alone (2 mM butyrate or 5 μM BIX01294), without LPS (FIG. 8, Panel D)",no or weak activity
"Nc1ncn([C@@H]2O[C@H](CO)[C@@H](O)[C@H]2O)c(=O)n1 [AZA, 5-azacytidine]",induction of AvBD9 gene expression,AvBD9 mRNA expression; 5 μM compound alone,3 fold
same,"increase in AvBD9 expression, combination with mocetinostat",AvBD9 mRNA expression,"1,925 fold"
COc1cc2c(cc1OCCCN1CCCC1)N=C(N)C21CCC1 [A-366],synergy in AvBD9 induction between HMTi and HDACi,AvBD9 mRNA expression,marked synergy
Cc1cc(Nc2ccc(NC(=O)c3ccc(Nc4ccnc5ccccc45)cc3)cc2)nc(N)n1 [SGI-1027],induction of AvBD9 gene expression,AvBD9 mRNA expression; 5 μM compound alone,4 fold
same,"increase in AvBD9 expression, combination with mocetinostat",AvBD9 mRNA expression,747 fold
same,additional increase in AvBD9 of the butyrate combination over compound alone,AvBD9 mRNA expression; 10 µM compound + 2 mM butyrate versus 10 µM compound alone,8 fold
same,induction of AvBD9 mRNA expression,"AvBD9 mRNA expression; 10 μM compound alone, 24 h (FIG. 2, Panel B)",51 fold
same,AvBD9 expression augmented,"AvBD9 mRNA expression; 10 µM compound alone, 24 h (FIG. 4, Panel C)",51 fold
same,AvBD9 induction when combined with butyrate,"AvBD9 mRNA expression; 10 µM compound combined with 2 mM butyrate, 24 h (FIG. 4, Panel C)",411 fold
same,synergy with butyrate in AvBD9 mRNA expression,AvBD9 mRNA expression,concentration-dependent increase; also recorded: synergize
same,activation of the AvBD9 gene promoter (relative luciferase activity),AvBD9 gene promoter,weak activator
same,synergy in luciferase activity with butyrate,AvBD9 gene promoter,no synergy
Nc1ccccc1NC(=O)c1ccc(CNc2nccc(-c3cccnc3)n2)cc1 [mocetinostat],induction of AvBD9 gene expression,AvBD9 mRNA expression; 2.5 μM mocetinostat alone,152 fold
